Data published in PMC3361971 (Journal of Natural Products, 2012).
Converted amounts (≈) assume the structure as drawn.

Legend:
[1] = test system: methicillin-resistant Staphylococcus aureus ATCC 33591 (MRSA); test: Antimicrobial assay, methicillin-resistant Staph. aureus; format: cell-based; settings: ATCC33591|MRSA
[2] = test system: bentgrass (Agrostis stolonifera); test: Phytotoxicity assay, bentgrass; settings: 1 mg/mL; visual ranking on scale of 0 to 5; in the presence of light
[3] = test system: Staphylococcus aureus ATCC 29213; test: Antimicrobial assay, methicillin-sensitive Staph. aureus; format: cell-based; settings: ATCC29213
[4] = test system: lettuce (Lactuca sativa cv. L., Iceberg); test: Phytotoxicity assay, lettuce; settings: 1 mg/mL; visual ranking on scale of 0 to 5; in the presence of light
[5] = test system: Leishmania donovani promastigotes; test: Antileishmanial assay; format: cell-based; settings: read-out: Antileishmanial activity IC90
[6] = test system: Plasmodium falciparum W2 (chloroquine resistant) strain; test: Antiplasmodial assay, chloroquine-resistant; format: cell-based; settings: selectivity index = IC50 for cytotoxicity (Vero)/IC50 for antiplasmodial activity
[7] = test system: Plasmodium falciparum D6 (chloroquine sensitive) strain; test: Antiplasmodial assay, chloroquine-sensitive; format: cell-based; settings: selectivity index = IC50 for cytotoxicity (Vero)/IC50 for antiplasmodial activity
[8] = test system: Vero cells (kidney fibroblast); test: Cytotoxicity to Vero cells; format: cell-based

| Molecule | Phytotoxic activity ranking, bentgrass [2] | Phytotoxic activity ranking, lettuce [4] | other results |
| --- | --- | --- | --- |
| COc1c(C[C@@H](C)O)c2c3c(C[C@@H](C)O)c(OC)c(=O)c4c(O)cc5c(c6c(cc(O)c(c1=O)c62)OCO5)c43 [Compound 5, (+)-cercosporin] | 2 | 3 | MIC [1]: 5 ng/mL (≈ 9.35 nM); MIC [3]: 2.5 ng/mL (≈ 4.68 nM) |
| COc1c(C[C@@H](C)OC(C)=O)c2c3c(C[C@@H](C)O)c(OC)c(=O)c4c(O)cc5c(c6c(cc(O)c(c1=O)c62)OCO5)c43 [Compound 6, (+)-14-O-acetylcercosporin] | 4 | 2 | IC90 [5]: 8.5 µM |
| COc1c(C[C@@H](C)OC(C)=O)c2c3c(C[C@@H](C)OC(C)=O)c(OC)c(=O)c4c(O)cc5c(c6c(cc(O)c(c1=O)c62)OCO5)c43 [Compound 7, (+)-di-O-acetylcercosporin] | 4 | 3 |  |
| CC[C@@H](C)[C@H]1O[C@@H](c2c(OC)c(-c3ccccc3)c[n+]([O-])c2OC)[C@H](C)C[C@@H]1C [Compound 10c] |  |  | Chloroquine-resistant (W2)-clone S. I. [6]: >1.2; Chloroquine-sensitive (D6)-clone S.I. [7]: >1.1 |
| 13-(R)-hydroxy-N-(O-methyl)septoriamycin A [Compound 4] |  |  | Cytotoxicity to Vero cells IC50 [8]: no antimicrobial, antifungal, antiprotozoal, phytotoxic, or cytotoxic activity |
